The text below walks through data of patent publication EP4389751A1, “HETEROCYCLIC COMPOUNDS AND USES THEREOF” (Kumquat Biosciences Inc., priority 2021, dated 2024).

In test [1] the target is T1, KRAS protein (His-tagged GDP-loaded G12S 1-169) (Homo sapiens, UniProt P01116, G12S).
T1 construct: His-tagged GDP-loaded G12S 1-169
Put plainly: Covalent modification of KRAS protein, intact-protein LC-MS. The conditions noted are these: for % G12S Modification at 24 hr.: 24hrs at room temperature, KRAS protein ~2 µM. Format: binding. In a few lines:
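His-tagged GDP-loaded KRAS 1-169 (~2 µM) incubated with compound 24 h at room temperature, then quenched with formic acid. Intact-protein LC-ESI-MS on C4 column; deconvoluted peak intensities of unmodified and adducted protein give percent covalent modification.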

Another test concerns A549 cells. Kind of test: Cell proliferation assay (CellTiter-Glo), K-Ras G12S cells. Format: cell-based. To be noted: for IC50: Homo sapiens; for ratio of IC50 against a G12D cell line to IC50 against a G12S cell line: K-Ras G12D cell line such as GP2D relative to K-Ras G12S cell line such as A549, greater than 1, 2, 3, 4, 5, 10, 15 or even greater, 8640 min. A digest of the protocol: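 A549 cells (K-Ras G12S) in RPMI-1640 with 10% FBS, seeded in standard or ultra-low-attachment plates and dosed next day with a 10-point 3-fold series. Viability read about 6 days later by CellTiter-Glo luminescence. IC50 from four-parameter fit.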
For orientation: ATP-based viability assays read luminescence as a measure of living cells.

In a further test the test system is GP2D cells. Put plainly: Cell proliferation assay (CellTiter-Glo), K-Ras G12D cells. Type of test: cell-based. To be noted: read-out: Inhibition of GP2D Cells (IC50). In a few lines: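 GP2D (K-Ras G12D) cells seeded in DMEM with 2 mM glutamine and 10% FBS, then dosed next day with a dilution series (e.g., 9-point 3-fold). Viability read by CellTiter-Glo luminescence after about 5 days. IC50 from four-parameter fit.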

Setting [2] is: A549, read-out: Inhibition of A549 Cells (IC50).
Setting [3] is: A549, A549 cells (K-Ras G12S), bin ≤ 500 nM, read-out: Inhibition of A549 Cells (IC50).
Setting [4] is: A549, A549 cells (K-Ras G12S), bin 500 nM to 5 µM, read-out: Inhibition of A549 Cells (IC50).

Where two headings read alike, the source gives them in different places. Where only a bound is given, the exact number is not on record here.

Usually IC50 stands for the concentration needed to halve the response being measured. For `N#Cc1nccn1C(=O)N1C2CCC1CN(c1nc(OC[C@@]34CCCN3C[C@H](F)C4)nc3c(F)c(-c4ccc(F)c5sc(N)nc45)c(Cl)cc13)C2` [Compound A170, 1-(3-(7-(2-amino-7-fluorobenzo[d]thiazol-4-yl)-6-chloro-8-fluoro-2-(((2R,7aS)-2-fluorotetrahydro-1H-pyrrolizin-7a(5H)-yl)methoxy)quinazolin-4-yl)-3,8-diazabicyclo[3.2. 1]octane-8-carbonyl)-1H-imidazole-2-carbonitrile], the “% G12S Modification at 24 hr.” value in test [1] is “++ (++ indicates between about 1%- 20% labelling)”. Also, the values for the IC50 in the test with A549 cells (setting [2]) and in the test with GP2D cells (GP2d) were 500 to 5000 nM and at most 1000 nM, respectively.

In the case of `N#Cc1c(N)sc2c(F)ccc(-c3c(Cl)cc4c(N5CCC6C5CN6C(=O)n5cncn5)nc(OC[C@@]56CCCN5C[C@H](F)C6)nc4c3F)c12` (stereo partly drawn) [Compound A183, 4-(4-(6-(1H-1,2,4-triazole-1-carbonyl)-2,6-diazabicyclo[3.2.0]heptan-2-yl)-6-chloro-8-fluoro-2-(((2R,7aS)-2-fluorotetrahydro-1H-pyrrolizin-7a(5H)-yl)methoxy)quinazolin-7-yl)-2-amino-7-fluorobenzo[b]thiophene-3-carbonitrile], in test [1], the “% G12S Modification at 24 hr.” value was “++ (++ indicates between about 1%- 20% labelling)”. The values for the IC50 with A549 cells (setting [3]) and in the test with GP2D cells (GP2D cells (K-Ras G12D)) were at most 500 nM and at most 1000 nM, respectively. The “ratio of IC50 against a G12D cell line to IC50 against a G12S cell line” value (shortened to “ratio of IC50 against a G12D cell line”) in the test with A549 cells is “greater than 1”.

In the case of `Cc1nc(C)n(C(=O)N2CC3(COCCN(c4nc(OC[C@@]56CCCN5C[C@H](F)C6)nc5c(F)c(-c6ccc(F)c7sc(N)c(C#N)c67)c(Cl)cc45)C3)C2)n1` [Compound A185, 2-amino-4-(6-chloro-4-(2-(3,5-dimethyl-1H-1,2,4-triazole-1-carbonyl)-6-oxa-2,9-diazaspiro[3.6]decan-9-yl)-8-fluoro-2-(((2R,7aS)-2-fluorotetrahydro-1H-pyrrolizin-7a(5H)-yl)methoxy)quinazolin-7-yl)-7-fluorobenzo[b]thiophene-3-carbonitrile], the “% G12S Modification at 24 hr.” value in test [1] was “++ (++ indicates between about 1%- 20% labelling)”. The values for the half-inhibitory concentration (IC50) in the test on A549 cells (setting [3]) and in the test with GP2D cells (GP2D cells (K-Ras G12D)) were at most 500 nM and 1000 to 10000 nM, respectively.

Take `Nc1nc2c(-c3c(Cl)cc4c(N5CCCN(C(=O)n6cncn6)CC5)nc(OC[C@@]56CCCN5C[C@H](F)C6)nc4c3F)ccc(F)c2s1` [Compound A191, (4-(7-(2-amino-7-fluorobenzo[d]thiazol-4-yl)-6-chloro-8-fluoro-2-(((2R,7aS)-2-fluorotetrahydro-1H-pyrrolizin-7a(5H)-yl)methoxy)quinazolin-4-yl)-1,4-diazepan-1-yl)(1H-1,2,4-triazol-1-yl)methanone]: the “% G12S Modification at 24 hr.” value in test [1] was “+++ (+++ indicates greater than 20% labelling)”. In addition, the half-inhibitory concentration (IC50) in the test with A549 cells (setting [4]) was 500 to 5000 nM; with GP2D cells (GP2D cells (K-Ras G12D)), 1000 to 10000 nM.

As to `N#Cc1c(N)sc2c(F)ccc(-c3c(Cl)cc4c(N5CCOC6(CN(C(=O)n7ccnn7)C6)C5)nc(OC[C@@]56CCCN5C[C@H](F)C6)nc4c3F)c12` [Compound A195, 4-(4-(2-(1H-1,2,3-triazole-1-carbonyl)-5-oxa-2,8-diazaspiro[3.5]nonan-8-yl)-6-chloro-8-fluoro-2-(((2R,7aS)-2-fluorotetrahydro-1H-pyrrolizin-7a(5H)-yl)methoxy)quinazolin-7-yl)-2-amino-7-fluorobenzo[b]thiophene-3-carbonitrile], the “% G12S Modification at 24 hr.” value in test [1] is “+++ (+++ indicates greater than 20% labelling)”. The IC50 with A549 cells (setting [3]) was at most 500 nM; with GP2D cells (GP2D cells (K-Ras G12D)), 1000 to 10000 nM.

In the case of `N#Cc1c(N)sc2c(F)ccc(-c3c(Cl)cc4c(N5CCOC6CN(C(=O)n7cncn7)CC65)nc(OC[C@@]56CCCN5C[C@H](F)C6)nc4c3F)c12` (stereo partly drawn) [Compound A218, 4-(4-(6-(1H-1,2,4-triazole-1-carbonyl)hexahydropyrrolo [3,4-b][1,4]oxazin-4(4aH)-yl)-6-chloro-8-fluoro-2-(((2R,7aS)-2-fluorotetrahydro-1H-pyrrolizin-7a(5H)-yl)methoxy)quinazolin-7-yl)-2-amino-7-fluorobenzo[b]thiophene-3-carbonitrile], the “% G12S Modification at 24 hr.” value in test [1] is on record as “+++ (+++ indicates greater than 20% labelling)”. Also, the figures for the IC50 with A549 cells (setting [3]) and in the test with GP2D cells (GP2D cells (K-Ras G12D)) were at most 500 nM and 1000 to 10000 nM, respectively. Moreover, in the test with A549 cells, the “ratio of IC50 against a G12D cell line” value is “greater than 1”.

As for `N#Cc1ccn(C(=O)N2C3CCC2CN(c2nc(OC[C@@]45CCCN4C[C@H](F)C5)nc4c(F)c(-c5ccc(F)c6sc(N)c(C#N)c56)c(Cl)cc24)C3)n1` [Compound A224, 1-(3-(7-(2-amino-3-cyano-7-fluorobenzo[b]thiophen-4-yl)-6-chloro-8-fluoro-2-(((2R,7aS)-2-fluorotetrahydro-1H-pyrrolizin-7a(5H)-yl)methoxy)quinazolin-4-yl)-3,8-diazabicyclo[3.2. 1]octane-8-carbonyl)-1H-pyrazole-3-carbonitrile], the “% G12S Modification at 24 hr.” value in test [1] is recorded as “++ (++ indicates between about 1%- 20% labelling)”. Further, the IC50 was 500 to 5000 nM in the test on A549 cells (setting [4]) and at most 1000 nM in the test on GP2D cells (GP2D cells (K-Ras G12D)).

As to `CN(C)C1CN(c2nc(N3CCOC4(CN(C(=O)n5cncn5)C4)C3)c3cc(Cl)c(-c4ccc(F)c5sc(N)c(C#N)c45)c(F)c3n2)C1` [Compound A256, 4-(4-(2-(1H-1,2,4-triazole-1-carbonyl)-5-oxa-2,8-diazaspiro[3.5]nonan-8-yl)-6-chloro-2-(3-(dimethylamino)azetidin-1-yl)-8-fluoroquinazolin-7-yl)-2-amino-7-fluorobenzo[b]thiophene-3-carbonitrile], the “% G12S Modification at 24 hr.” value in test [1] is listed as “+++ (+++ indicates greater than 20% labelling)”. Moreover, the IC50 is at most 500 nM in the test with A549 cells (setting [3]) and 1000 to 10000 nM with GP2D cells (GP2D cells (K-Ras G12D)).

Consider `N#Cc1c(N)sc2c(F)ccc(-c3c(Cl)cc4c(N[C@H]5C[C@H]6CC[C@@H](C5)N6C(=O)n5cncn5)nc(OC[C@@]56CCCN5C[C@H](F)C6)nc4c3F)c12` [Compound A257, 4-(4-(((1R,3r,5S)-8-(1H-1,2,4-triazole-1-carbonyl)-8-azabicyclo[3.2.1]octan-3-yl)amino)-6-chloro-8-fluoro-2-(((2R,7aS)-2-fluorotetrahydro-1H-pyrrolizin-7 a(5H)-yl)methoxy)quinazolin-7-yl)-2-amino-7-fluorobenzo[b]thiophene-3-carbonitrile], for which, in test [1], the “% G12S Modification at 24 hr.” value is “++ (++ indicates between about 1%- 20% labelling)”. Besides, the IC50 in the test on A549 cells (setting [2]) lay in the range of 500 to 5000 nM; with GP2D cells (GP2d), 1000 to 10000 nM.

On to `N#Cc1c(N)sc2c(F)ccc(-c3c(Cl)cc4c(OC5CCCCN(C(=O)n6cncn6)C5)nc(OC[C@@]56CCCN5C[C@H](F)C6)nc4c3F)c12` (stereo partly drawn) [Compound A258, 4-(4-((1-(1H-1,2,4-triazole-1-carbonyl)azepan-3-yl)oxy)-6-chloro-8-fluoro-2-(((2R,7aS)-2-fluorotetrahydro-1H-pyrrolizin-7a(5H)-yl)methoxy)quinazolin-7-yl)-2-amino-7-fluorobenzo[b]thiophene-3-carbonitrile], for which the “% G12S Modification at 24 hr.” value in test [1] is reported as “+++ (+++ indicates greater than 20% labelling)”. The IC50 in the test with A549 cells (setting [3]) is at most 500 nM; in the test on GP2D cells (GP2D cells (K-Ras G12D)), at most 1000 nM.

With `N#Cc1c(N)sc2c(F)ccc(-c3c(Cl)cc4c(N5CCC6(CN(C(=O)n7cncn7)C6)C5)nc(OC[C@@]56CCCN5C[C@H](F)C6)nc4c3F)c12` [Compound A277, 4-(4-(2-(1H-1,2,4-triazole-1-carbonyl)-2,6-diazaspiro[3.4]octan-6-yl)-6-chloro-8-fluoro-2-(((2R,7aS)-2-fluorotetrahydro-1H-pyrrolizin-7a(5H)-yl)methoxy)quinazolin-7-yl)-2-amino-7-fluorobenzo[b]thiophene-3-carbonitrile], the “K-Ras12S engagement after 24-hour treatment” value in test [1] (24-hour treatment, compound pairs differ only at R^6 (warhead)) is on record as “+++ (+++: indicates equal to or greater than 20% labelling)”. Besides, in test [1], the “% G12S Modification at 24 hr.” value was “+++ (+++ indicates greater than 20% labelling)”. In addition, the IC50 with A549 cells (setting [3]) is at most 500 nM; in the test on GP2D cells (GP2D cells (K-Ras G12D)), 1000 to 10000 nM. Also, in the test on A549 cells, the “ratio of IC50 against a G12D cell line” value is reported as “greater than 1”.

For the compound `Cc1nc(C)n(C(=O)N2CC3(C2)CN(c2nc(OC[C@@]45CCCN4C[C@H](F)C5)nc4c(F)c(-c5ccc(F)c6sc(N)c(C#N)c56)c(Cl)cc24)CCO3)n1` [Compound A283, 2-amino-4-(6-chloro-4-(2-(3,5-dimethyl-1H-1,2,4-triazole-1-carbonyl)-5-oxa-2,8-diazaspiro[3.5]nonan-8-yl)-8-fluoro-2-(((2R,7aS)-2-fluorotetrahydro-1H-pyrrolizin-7a(5H)-yl)methoxy)quinazolin-7-yl)-7-fluorobenzo[b]thiophene-3-carbonitrile], the “% G12S Modification at 24 hr.” value in test [1] is recorded as “+++ (+++ indicates greater than 20% labelling)”. The IC50 in the test with A549 cells (setting [3]) was at most 500 nM; with GP2D cells (GP2D cells (K-Ras G12D)) it was 1000 to 10000 nM.
